Changes are numbered by the printed parent chain.
How the values were obtained:
Test in all cases: ATP hydrolysis, [γ-32P]-ATP TLC, Michaelis-Menten fit
Assay type in all cases: biochemical
Conditions in all cases: M13 ssDNA 1.5 μM nt, 10 nM Pif1, 5 mM MgCl2, 60 mM KCl, pH 7.5, 30 °C, no RPA; labelled compound as tracer
[1] = target: T1, GFP-Pif1 (Saccharomyces cerevisiae, UniProt P07271, H705A)
T1 construct: N-terminal superfolder GFP fusion of nuclear isoform residues 40-859, pRSF-Duet-1, E. coli Rosetta2(DE3), Ni-NTA purified
T1 sequence (P07271 40-859 H705A): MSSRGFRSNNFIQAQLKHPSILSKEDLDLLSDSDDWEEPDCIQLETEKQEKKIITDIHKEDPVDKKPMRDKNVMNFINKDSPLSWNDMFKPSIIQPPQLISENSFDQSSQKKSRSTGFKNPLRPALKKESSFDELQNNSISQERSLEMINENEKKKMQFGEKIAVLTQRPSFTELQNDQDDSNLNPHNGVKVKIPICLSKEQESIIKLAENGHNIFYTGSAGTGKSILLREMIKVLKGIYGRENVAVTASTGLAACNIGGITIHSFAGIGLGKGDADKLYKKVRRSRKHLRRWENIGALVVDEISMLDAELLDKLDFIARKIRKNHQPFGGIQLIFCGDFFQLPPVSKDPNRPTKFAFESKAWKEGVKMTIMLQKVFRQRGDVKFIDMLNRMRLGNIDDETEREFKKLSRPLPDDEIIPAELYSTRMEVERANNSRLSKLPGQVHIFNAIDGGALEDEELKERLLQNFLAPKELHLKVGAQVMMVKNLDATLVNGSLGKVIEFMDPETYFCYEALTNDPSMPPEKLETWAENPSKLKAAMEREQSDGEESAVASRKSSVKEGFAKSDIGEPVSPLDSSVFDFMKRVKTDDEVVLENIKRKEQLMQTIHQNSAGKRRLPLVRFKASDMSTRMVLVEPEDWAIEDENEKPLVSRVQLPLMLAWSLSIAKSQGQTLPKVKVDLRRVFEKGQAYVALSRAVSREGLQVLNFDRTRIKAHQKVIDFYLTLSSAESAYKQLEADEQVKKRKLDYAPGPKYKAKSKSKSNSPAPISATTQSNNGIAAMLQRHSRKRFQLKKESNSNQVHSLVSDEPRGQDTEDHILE

[2] = target: T2, GFP-Pif1 (Saccharomyces cerevisiae, UniProt P07271, E724A)
T2 construct: N-terminal superfolder GFP fusion of nuclear isoform residues 40-859, pRSF-Duet-1, E. coli Rosetta2(DE3), Ni-NTA purified
T2 sequence (P07271 40-859 E724A): T1 sequence (P07271 40-859 H705A) with A666H, E685A
Method: (§1) ATP hydrolysis, [γ-32P]-ATP TLC, Michaelis-Menten fit on GFP-Pif1 | each of the mutant proteins was tested for ATPase activity

[3] = target: T3, GFP-Pif1 (Saccharomyces cerevisiae, UniProt P07271, H303A)
T3 construct: N-terminal superfolder GFP fusion of nuclear isoform residues 40-859, pRSF-Duet-1, E. coli Rosetta2(DE3), Ni-NTA purified
T3 sequence (P07271 40-859 H303A): T1 sequence (P07271 40-859 H705A) with H264A, A666H
Method: as §1

Km [1]: 1210 µM
Km [2]: 1470 ± 1370 µM
Km [3]: 870 ± 1320 µM
Structure (SMILES): Nc1ncnc2c1ncn2[C@@H]1O[C@H](COP(=O)(O)OP(=O)(O)OP(=O)(O)O)[C@@H](O)[C@H]1O [ATP]
